Test results: US8680290B2, “Isoxazoline derivatives and their use as herbicides” (Syngenta Limited, priority 2004, dated 2014)

Legend:
[1] = tested on: Monocotyledonous and dicotyledonous test plants; assay: Example B2 herbicidal action, application post-emergence, 96-cell seed trays (Table B2a); format: in vivo; details: 1000 g/ha
Method: (§1) Monocotyledonous and dicotyledonous test plants were sown in sterilised standard soil in seed trays each having 96 cells. After one day (pre-emergence) or after 8 to 9 days cultivation (post-emergence) under controlled conditions in a climatic chamber (cultivation at 17/23° C.; 13 hours light; 50-60% humidity; after application at 19/24° C.), the plants were treated with an aqueous spray solution of 1000 mg/l of the active ingredient used (rate of application: […]; incl. 10% DMSO as solvent). The plants were grown on in the climatic chamber until the test was evaluated (10 total damage to plant, 0=no damage to plant) after 9 or 13 days.

[2] = tested on: Monocotyledonous and dicotyledonous test plants; assay: Example B2 herbicidal action, application pre-emergence, 96-cell seed trays (Table B2b); format: in vivo; details: 1000 g/ha
Method: as §1

[3] = tested on: Monocotyledonous and dicotyledonous test plants; assay: Example B1 herbicidal action, application pre-emergence (Table B1b); format: in vivo; details: 250 g/ha, evaluated after 4 weeks
How it was run: (§2)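 Compounds sprayed as aqueous solution from acetone/Emulsogen EL/NMP/dipropylene glycol monomethyl ether/X-77 formulation onto soil right after sowing (pre-emergence) or onto 8–9-day plants (post-emergence); greenhouse-grown. Damage scored 0 (none) to 10 (total) after 4 weeks pre- or 3 weeks post-emergence.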

[4] = tested on: Monocotyledonous and dicotyledonous test plants; assay: Example B1 herbicidal action, application post-emergence (Table B1a); format: in vivo; details: 250 g/ha, evaluated after 3 weeks, scale 0-10
How it was run: as §2

| Compound | herbicidal action (damage rating 0-10), Agrostis ([1]; Agrostis) | herbicidal action (damage rating 0-10), Amaranthus ([1]; Amaranthus) | herbicidal action (damage rating 0-10), Poa ([1]; Poa) | herbicidal action (damage rating 0-10), Setaria ([1]; Setaria) | herbicidal action (damage rating 0-10), Agrostis [2] | herbicidal action (damage rating 0-10), Digitaria [2] | herbicidal action (damage rating 0-10), Poa [2] | herbicidal action (damage rating 0-10), Setaria [2] | herbicidal action (damage rating 0-10), Amaranthus [3] | herbicidal action (damage rating 0-10), Digitaria [3] | herbicidal action (damage rating 0-10), Panicum [3] | herbicidal action (damage rating 0-10), Setaria [3] | herbicidal action (damage rating 0-10), Sida [3] | melting point [°C] | herbicidal damage rating, Abutilon [4] | herbicidal damage rating, Amaranthus [4] | herbicidal damage rating, Digitaria [4] | herbicidal damage rating, Panicum [4] | herbicidal damage rating, Setaria [4] | herbicidal damage rating, Sida [4] |
| --- | --- | --- | --- | --- | --- | --- | --- | --- | --- | --- | --- | --- | --- | --- | --- | --- | --- | --- | --- | --- |
| CC1(C)CC(S(=O)(=O)C(Cl)c2c(F)cccc2Cl)=NO1 (stereo not drawn) [1.32] | 8 | 6 | 8 | 6 |  |  |  |  |  |  |  |  |  |  |  |  |  |  |  |  |
| CC1(C)CC(S(=O)(=O)C(Br)c2c(F)cccc2F)=NO1 (stereo not drawn) [Compound No. 1.19, 3-[bromo-(2,6-difluorophenyl)-methanesulfonyl]-5,5-dimethyl-4,5-dihydroisoxazole] |  |  |  |  | 10 | 9 | 10 | 9 | 10 | 10 | 10 | 10 | 6 | 135 | 6 | 5 | 6 | 5 | 5 | 2 |
| CC1(C)CC(S(=O)(=O)C(F)(Cl)c2c(F)cccc2F)=NO1 (stereo not drawn) [Compound No. 1.21, 3-[chloro-(2,6-difluoro-phenyl)-fluoro-methanesulfonyl]-5,5-dimethyl-4,5-dihydroisoxazole] |  |  |  |  | 10 | 10 | 10 | 9 | 10 | 10 | 10 | 10 | 9 | 129 | 7 |  | 7 | 9 | 7 | 5 |
| CC1(C)CC(S(=O)(=O)C(C(N)=O)c2c(F)cccc2F)=NO1 (stereo not drawn) [Compound No. 1.23, 2-(2,6-difluoro-phenyl)-2-(5,5-dimethyl-4,5-dihydroisoxazole-3-sulfonyl)-acetamide] |  |  |  |  | 10 | 8 | 10 | 8 | 7 | 4 | 10 | 7 | 0 | 175 |  |  |  |  |  |  |
| CC1(C)CC(S(=O)(=O)C(I)c2c(F)cccc2F)=NO1 (stereo not drawn) [Compound No. 1.25, 3-[(2,6-difluoro-phenyl)-iodo-methanesulfonyl]-5,5-dimethyl-4,5-dihydroisoxazole] |  |  |  |  | 10 | 9 | 10 | 8 | 10 | 10 | 10 | 10 | 3 | 156 | 5 |  | 4 | 3 | 3 | 4 |
| CC1(C)CC(S(=O)(=O)C(Cl)(Cl)c2c(F)cccc2F)=NO1 [Compound No. 1.26, 3-[dichloro-(2,6-difluoro-phenyl)-methanesulfonyl]-5,5-dimethyl-4,5-dihydroisoxazole] |  |  |  |  | 10 | 10 | 10 | 9 | 10 | 9 | 10 | 10 | 4 | 126 | 4 |  | 4 | 3 | 5 |  |
| CC(=O)C(c1c(F)cccc1F)S(=O)(=O)C1=NOC(C)(C)C1 (stereo not drawn) [Compound No. 1.27, 1-(2,6-difluorophenyl)-1-(5,5-dimethyl-4,5-dihydroisoxazole-3-sulfonyl)-propan-2-one] |  |  |  |  | 10 | 9 | 9 | 9 | 7 | 4 | 9 | 5 | 2 | 116 | 4 |  | 2 | 5 | 3 | 4 |
| Cc1cccc(C(Cl)S(=O)(=O)C2=NOC(C)(C)C2)c1 (stereo not drawn) [Compound No. 1.30, 3-[chloro-m-tolyl-methanesulfonyl]-5,5-dimethyl-4,5-dihydroisoxazole] |  |  |  |  | 10 | 10 | 10 | 10 | 0 | 9 | 10 | 9 | 2 | 102 |  |  |  |  |  |  |
| Cc1cccc(C(Cl)(Cl)S(=O)(=O)C2=NOC(C)(C)C2)c1 [Compound No. 1.31, 3-[dichloro-m-tolyl-methanesulfonyl]-5,5-dimethyl-4,5-dihydroisoxazole] |  |  |  |  | 9 | 9 | 9 | 10 | 0 | 9 | 9 | 7 | 0 | 89 | 3 |  | 1 | 7 | 0 | 7 |
| CC1(C)CC(S(=O)(=O)C(Cl)(Br)c2c(F)cccc2F)=NO1 (stereo not drawn) [Compound No. 1.53, 3-[bromo-chloro-(2,6-difluorophenyl)-methanesulfonyl]-5,5-dimethyl-4,5-dihydroisoxazole] |  |  |  |  |  |  |  |  | 9 | 10 | 10 | 10 | 5 | 119 | 5 | 7 | 7 | 7 | 7 | 2 |
